Laboratory results reported in US20240050428A1 (Cullgen (Shanghai), Inc., priority 2020, published 2024).
Read-outs that look alike come from different tables or passages of the source.

How the values were obtained:
MOLM-13 cells = assay: Cell viability assay (CellTiter-Glo) in MOLM-13 cells, alone or with gilteritinib; assay type: cell-based; conditions: Homo sapiens, MOLM-13, 72 h, MOLM-13 cells, CellTiter-Glo
MV4;11 cells = assay: Cell viability assay (CellTiter-Glo) in MV4;11 cells, alone or with gilteritinib; assay type: cell-based; conditions: Homo sapiens, MV4-11, 72 h, MV4;11 cells, CellTiter-Glo, read-out: MV4
[1] = compound alone (without gilteritinib), three days, read-out: MOLM-13 IC50
[2] = with gilteritinib 20 nM, three days, read-out: MOLM-13 IC50 gilteritinib
[3] = compound alone (without gilteritinib), three days, 11 IC50
[4] = with gilteritinib 10 nM, three days, 11 IC50 gilteritinib
[5] = with 20 nM gilteritinib, 3 days, read-out: MOLM-13 IC50 gilteritinib
[6] = without gilteritinib, 3 days, read-out: MOLM-13 IC50
[7] = without gilteritinib, 3 days, 11 IC50
[8] = with 10 nM gilteritinib, 3 days, 11 IC50 gilteritinib

SMILES	IC50 (MOLM-13 cells; [1]) [nM]	IC50 (MOLM-13 cells; [2]) [nM]	IC50 (MV4;11 cells; [3]) [nM]	IC50 (MV4;11 cells; [4]) [nM]	IC50 (MOLM-13 cells; [5]) [nM]	IC50 (MOLM-13 cells; [6]) [nM]	IC50 (MV4;11 cells; [7]) [nM]	IC50 (MV4;11 cells; [8]) [nM]
O=C1CCC(N2C(=O)c3ccc(NCCCCCC(=O)N4CCC(n5cc(-c6ccc7cccc(Br)c7n6)cn5)CC4)cc3C2=O)C(=O)N1 (stereo not drawn) [GS-052, 5-((6-(4-(4-(8-Bromoquinolin-2-yl)-1H-pyrazol-1-yl)piperidin-1-yl)-6-oxohexyl)amino)-2-(2,6-dioxopiperidin-3-yl)isoindoline-1,3-dione]	> 1000	< 10	100 to 1000	< 10	–	–	–	–
O=C1CCC(N2C(=O)c3ccc(NCCCCCC(=O)N4CCC(n5cc(-c6ccccn6)cn5)CC4)cc3C2=O)C(=O)N1 (stereo not drawn) [GS-053, 2-(2,6-Dioxopiperidin-3-yl)-5-((6-oxo-6-(4-(4-(pyridin-2-yl)-1H-pyrazol-1-yl)piperidin-1-yl)hexyl)amino)isoindoline-1,3-dione]	100 to 1000	< 10	10 to 100	< 10	–	–	–	–
O=C(CCC(F)(F)C(=O)N1CCC(n2cc(-c3cnc4cccc(Br)c4n3)cn2)CC1)NCc1ccc2c(c1)CN(C1CCC(=O)NC1=O)C2=O (stereo not drawn) [GS-054, 5-(4-(4-(8-Bromoquinoxalin-2-yl)-1H-pyrazol-1-yl)piperidin-1-yl)-N-((2-(2,6-dioxopiperidin-3-yl)-1-oxoisoindolin-5-yl)methyl)-4,4-difluoro-5-oxopentanamide]	10 to 100	< 10	< 10	< 10	–	–	–	–
CN(Cc1ccc2c(c1)CN(C1CCC(=O)NC1=O)C2=O)C(=O)CCCC(=O)N1CCC(n2cc(-c3cnc4cccc(Br)c4n3)cn2)CC1 (stereo not drawn) [GS-058, 5-(4-(4-(8-Bromoquinoxalin-2-yl)-1H-pyrazol-1-yl)piperidin-1-yl)-N-((2-(2,6-dioxopiperidin-3-yl)-1-oxoisoindolin-5-yl)methyl)-N-methyl-5-oxopentanamide]	100 to 1000	> 1000	> 1000	100 to 1000	–	–	–	–
O=C1CCC(N2C(=O)c3ccc(NCCCCCC(=O)N4CCC(c5cnc6cccc(Br)c6n5)CC4)cc3C2=O)C(=O)N1 (stereo not drawn) [GS-060, 5-((6-(4-(8-Bromoquinoxalin-2-yl)piperidin-1-yl)-6-oxohexyl)amino)-2-(2,6-dioxopiperidin-3-yl)isoindoline-1,3-dione]	< 10	< 10	< 10	< 10	0.06	3.7	< 1	–
O=C1CCC(N2C(=O)c3ccc(NCCCCCC(=O)c4ccc(-n5cccn5)cc4)cc3C2=O)C(=O)N1 (stereo not drawn) [GS-061, 5-((6-(4-(1H-Pyrazol-1-yl)phenyl)-6-oxohexyl)amino)-2-(2,6-dioxopiperidin-3-yl)isoindoline-1,3-dione]	> 1000	100 to 1000	> 1000	100 to 1000	–	–	–	–
O=C1CCC(N2C(=O)c3ccc(NCCCCCC(=O)N4CC(n5cc(-c6cnc7cccc(Br)c7n6)cn5)C4)cc3C2=O)C(=O)N1 (stereo not drawn) [GS-062, 5-((6-(3-(4-(8-Bromoquinoxalin-2-yl)-1H-pyrazol-1-yl)azetidin-1-yl)-6-oxohexyl)amino)-2-(2,6-dioxopiperidin-3-yl)isoindoline-1,3-dione]	–	–	–	–	72	> 10000	9410	1920
O=C1CCC(N2C(=O)c3ccc(NCCCCCC(=O)N4CCC(n5cc(N6CCC6)cn5)CC4)cc3C2=O)C(=O)N1 (stereo not drawn) [GS-063, 5-((6-(4-(4-(Azetidin-1-yl)-1H-pyrazol-1-yl)piperidin-1-yl)-6-oxohexyl)amino)-2-(2,6-dioxopiperidin-3-yl)isoindoline-1,3-dione]	–	–	–	–	3680	> 10000	> 10000	8550
O=C1CCC(N2C(=O)c3ccc(NCCCCCC(=O)N4CCC(n5cc(C6CC6)cn5)CC4)cc3C2=O)C(=O)N1 (stereo not drawn) [GS-064, 5-((6-(4-(4-Cyclopropyl-1H-pyrazol-1-yl)piperidin-1-yl)-6-oxohexyl)amino)-2-(2,6-dioxopiperidin-3-yl)isoindoline-1,3-dione]	–	–	–	–	600	520	349	27
Cc1cccc(-c2ccn([C@H]3C[C@H](CNc4ccc5c(c4)C(=O)N(C4CCC(=O)NC4=O)C5=O)C3)n2)n1 (stereo partly drawn) [GS-065, 2-(2,6-Dioxopiperidin-3-yl)-5-(((trans-3-(3-(6-methylpyridin-2-yl)-1H-pyrazol-1-yl)cyclobutyl)methyl)amino)isoindoline-1,3-dione]	> 1000	> 1000	> 1000	> 1000	–	–	–	–
O=C1CCC(N2C(=O)c3ccc(NC[C@H]4C[C@H](n5cc(-c6cnc7cc(N8CCOCC8)ccc7n6)c(C6CC6)n5)C4)cc3C2=O)C(=O)N1 (stereo partly drawn) [GS-066, 5-(((trans-3-(3-Cyclopropyl-4-(6-morpholinoquinoxalin-2-yl)-1H-pyrazol-1-yl)cyclobutyl)methyl)amino)-2-(2,6-dioxopiperidin-3-yl)isoindoline-1,3-dione]	10 to 100	< 10	10 to 100	< 10	–	–	–	–
O=C1CCC(N2C(=O)c3ccc(NC[C@H]4C[C@H](n5cc(-c6cnc7ccc(CN8CCOCC8)cc7n6)c(C6CC6)n5)C4)cc3C2=O)C(=O)N1 (stereo partly drawn) [GS-067, 5-(((trans-3-(3-Cyclopropyl-4-(7-(morpholinomethyl)quinoxalin-2-yl)-1H-pyrazol-1-yl)cyclobutyl)methyl)amino)-2-(2,6-dioxopiperidin-3-yl)isoindoline-1,3-dione]	> 1000	10 to 100	10 to 100	10 to 100	–	–	–	–
O=C1CCC(N2C(=O)c3ccc(NC[C@H]4C[C@H](n5cc(-c6cnc7ccc(CN8CCNCC8)cc7n6)c(C6CC6)n5)C4)cc3C2=O)C(=O)N1 (stereo partly drawn) [GS-068, 5-(((trans-3-(3-cyclopropyl-4-(7-(piperazin-1-ylmethyl)quinoxalin-2-yl)-1H-pyrazol-1-yl)cyclobutyl)methyl)amino)-2-(2,6-dioxopiperidin-3-yl)isoindoline-1,3-dione]	> 1000	10 to 100	10 to 100	< 10	–	–	–	–
CCc1cccc(-c2cn([C@H]3C[C@H](CNc4ccc5c(c4)C(=O)N(C4CCC(=O)NC4=O)C5=O)C3)nc2C2CC2)n1 (stereo partly drawn) [GS-069, 5-(((trans-3-(3-Cyclopropyl-4-(6-ethylpyridin-2-yl)-1H-pyrazol-1-yl)cyclobutyl)methyl)amino)-2-(2,6-dioxopiperidin-3-yl)isoindoline-1,3-dione]	100 to 1000	10 to 100	10 to 100	< 10	–	–	–	–
O=C1CCC(N2C(=O)c3ccc(NCCC[C@H]4C[C@H](n5cc(-c6ncccc6Cl)c(C6CC6)n5)C4)cc3C2=O)C(=O)N1 (stereo partly drawn) [GS-070, 5-((3-(trans-3-(4-(3-chloropyridin-2-yl)-3-cyclopropyl-1H-pyrazol-1-yl)cyclobutyl)propyl)amino)-2-(2,6-dioxopiperidin-3-yl)isoindoline-1,3-dione]	100 to 1000	< 10	10 to 100	< 10	–	–	–	–
Cc1cccc(-c2cn([C@H]3C[C@H](CNc4ccc5c(c4)C(=O)N(C4CCC(=O)NC4=O)C5=O)C3)nc2C2CCOCC2)n1 (stereo partly drawn) [GS-071, 2-(2,6-Dioxopiperidin-3-yl)-5-(((trans-3-(4-(6-methylpyridin-2-yl)-3-(tetrahydro-2H-pyran-4-yl)-1H-pyrazol-1-yl)cyclobutyl)methyl)amino)isoindoline-1,3-dione]	> 1000	10 to 100	> 1000	10 to 100	–	–	–	–
O=C1CCC(N2Cc3cc(Nc4ccnc(Nc5ccc6c(c5)CC(N5CCC(n7cc(-c8cnc9cccc(Br)c9n8)cn7)CC5)C6)n4)ccc3C2=O)C(=O)N1 (stereo not drawn) [GS-072, 3-(5-((2-((2-(4-(4-(8-Bromoquinoxalin-2-yl)-1H-pyrazol-1-yl)piperidin-1-yl)-2,3-dihydro-1H-inden-5-yl)amino)pyrimidin-4-yl)amino)-1-oxoisoindolin-2-yl)piperidine-2,6-dione]	> 1000	100 to 1000	> 1000	100 to 1000	–	–	–	–
O=C1CCC(N2Cc3cc(Nc4ccnc(Nc5ccc6c(c5)CC(N5CCC(n7cc(-c8cnc9ccccc9n8)cn7)CC5)C6)n4)ccc3C2=O)C(=O)N1 (stereo not drawn) [GS-073, 3-(1-Oxo-5-((2-((2-(4-(4-(quinoxalin-2-yl)-1H-pyrazol-1-yl)piperidin-1-yl)-2,3-dihydro-1H-inden-5-yl)amino)pyrimidin-4-yl)amino)isoindolin-2-yl)piperidine-2,6-dione]	100 to 1000	100 to 1000	100 to 1000	10 to 100	–	–	–	–
O=C1CCC(N2Cc3c(Nc4ccnc(N5CCC(N6CCC(n7cc(-c8cnc9ccccc9n8)cn7)CC6)C5)n4)cccc3C2=O)C(=O)N1 (stereo not drawn) [GS-074, 3-(1-Oxo-4-((2-(3-(4-(4-(quinoxalin-2-yl)-1H-pyrazol-1-yl)piperidin-1-yl)pyrrolidin-1-yl)pyrimidin-4-yl)amino)isoindolin-2-yl)piperidine-2,6-dione]	> 1000	> 1000	> 1000	> 1000	–	–	–	–
O=C1CCC(N2Cc3c(Nc4ccnc(Nc5cccc(N6CCC(c7ccccc7)CC6)c5)n4)cccc3C2=O)C(=O)N1 (stereo not drawn) [GS-075]	100 to 1000	10 to 100	100 to 1000	10 to 100	–	–	–	–
O=C1CCC(N2Cc3c(Nc4ccnc(Nc5cccc(N6CCN(c7ccccn7)CC6)c5)n4)cccc3C2=O)C(=O)N1 (stereo not drawn) [GS-076, 3-(1-Oxo-4-((2-((3-(4-(pyridin-2-yl)piperazin-1-yl)phenyl)amino)pyrimidin-4-yl)amino)isoindolin-2-yl)piperidine-2,6-dione]	10 to 100	< 10	10 to 100	< 10	–	–	–	–
